Legend:
HDAC8 [1] = target: T1, HDAC8 (Homo sapiens, UniProt Q9BY41); assay: HDAC8 degradation in SK-N-BE(2)-C neuroblastoma cells (Western blot); assay type: cell-based; set-up: endogenous in cells; host or cells: SK-N-BE(2)-C; conditions: SK-N-BE(2)-C cells; for HDAC8 degradation: up to 10 µM, Western blot
T1 sequence (Q9BY41 1-377): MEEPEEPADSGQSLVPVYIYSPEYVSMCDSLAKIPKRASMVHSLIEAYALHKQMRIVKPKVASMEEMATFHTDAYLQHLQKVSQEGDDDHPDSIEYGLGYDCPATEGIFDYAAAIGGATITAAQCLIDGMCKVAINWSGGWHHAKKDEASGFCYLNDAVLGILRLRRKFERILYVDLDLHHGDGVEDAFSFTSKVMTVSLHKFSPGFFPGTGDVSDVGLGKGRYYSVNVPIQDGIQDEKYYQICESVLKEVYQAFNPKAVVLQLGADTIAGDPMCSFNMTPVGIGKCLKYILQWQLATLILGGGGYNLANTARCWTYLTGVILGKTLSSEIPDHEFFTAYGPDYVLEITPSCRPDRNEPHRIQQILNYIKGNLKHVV
Method: Whole cell lysates from treated SK-N-BE(2)-C neuroblastoma cells were taken and the protein levels for HDAC8 and the acetylation of its substrate SMC3 were determined (Figure 6). As a control for HDAC6, we also assessed acetylation levels of α-tubulin. […] Western blot analysis was performed as described previously (Kolbinger et al.).
Figure 6 (A) SK-N-BE(2)-C neuroblastoma cells were treated for indicated time points with 10 µM of PROTACs. Degradation of HDAC8 and acetylation of HDAC8 target was analyzed via Western blot. (B) SK-N-BE(2)-C neuroblastoma cells were treated for 6 h with indicated concentrations of HyT_1p, CRBN_1b and HyT_1m. Acetylation of HDAC8 target SMC3 and HDAC6 target tubulin, as well as total HDAC8 levels, were assessed by Western blot. Quantified ac-SMC3 or ac-tubulin expression, respectively, was normalized to the respective tubulin loading control and to the solvent control (DMSO). This quantification is reflected by the numbers below each blot. […] Total HDAC6, total HDAC1, total HDAC8, and acetyl-histone H4 expression levels, were assessed by Western blot. Total GAPDH protein levels served as a loading control (LC). * unspecific bands obtained through reprobing of the membrane.

SK-N-BE(2)-C cells = assay: Colony formation assay in neuroblastoma cells; assay type: cell-based, human; conditions: 5 and 10 μM, treatment 96 h, then 6 days without treatment
Method: In order to measure the functional consequence of HDAC8 inhibition, two different cell lines were used: SK-N-BE(2)-C cells, which display MYCN amplification and non-functional p53; and IMR-32 cells having p53 wild type, which both respond with growth arrest and signs of neuronal differentiation upon knockdown or selective inhibition of HDAC8. Growth arrest was determined by colony formation and viability assays. Cells were treated with 5 and 10 μM of each of the CRBN_ based HDAC8 PROTACs having a triazole linker (CRBN_1d, CRBN_1e, CRBN_1f) for 96 h, followed by culturing for another 6 days without treatment (Figure 5A). This assesses whether the treatment impairs the clonogenic growth capacity of tumor cells, indicating effectiveness of compounds on the survival and proliferation of tumor cells.
In six-well plates, 500 cells were seeded and treated as indicated. Viable colonies were stained after a minimum of 10 days with crystal violet. For quantification, the mean intensity of each well of the 8-bit binary picture was measured with ImageJ software (U. S. National Institutes of Health, Bethesda, MD, USA; http://imagej.nih.gov/ij/ (accessed on 1 March 2022)).
Figure 5 (A) Neuroblastoma SK-N-BE(2)-C cells; Colony Assay, 10 days (compound treatment within first 96 h). Stained with crystal violet and quantified with ImageJ. (B,C) Trypan Blue assay for detection of dead cells. Neuroblastoma IMR-32 cells were either treated with 5 µM (B) or 10 µM (C). (D,E) Cell proliferation assessed via counting of viable cells. IMR-32 cells were either treated with 5 µM (D) or 10 µM (E) PROTACs. HDAC8i PCI-34501 served as a positive control, untreated (MEM) and solvent (DMSO) treated cells served as negative controls.

HDAC8 [2] = target: T1, HDAC8; assay: In vitro HDAC8 activity assay (Fluor de Lys-HDAC8); assay type: biochemical; set-up: made in house; conditions: for IC50: Table 1, PROTACs
Method: Recombinant hHDAC8 was produced by Romier et al. in Strasbourg. The HDAC8 activity assays were performed according to the commercial HDAC8 Fluorometric Drug Discovery Kit (Fluor de Lys(R)-HDAC8, BML-KI178) corresponding to the instructions of the manufacturer. As substrate a tetrapeptide connected to aminomethylcoumarin (AMC) H2N-Arg- His-Lys(Ac)-Lys(Ac)-AMC was synthesized as previously described. The enzyme was incubated for 90 min at 37 °C, with a substrate concentration of 50 µM and increasing concentrations of inhibitors. The stop-solution-containing inhibitor was added to stop the hHDAC8 activity, and Trypsin was added to release the AMC. The solution was incubated for 20 min at 37 °C to develop the assay.
(§1) Inhibition was measured at increasing concentration and IC50 was calculated by nonlinear regression with Origin 9.0G software.

HDAC1 = HDAC1 (Homo sapiens, UniProt Q13547); assay: In vitro HDAC inhibitory activity assay, recombinant HDAC1 (fluorogenic substrate ZMAL); assay type: biochemical; set-up: purchased BPS Biosciences
Method: The in vitro testing on recombinant HDACs was performed as previously described. Recombinant human HDAC1 and −6 were purchased from BPS Biosciences. The enzyme inhibition was determined by using a reported homogenous fluorescence assay. […] Fluorescence intensity was measured at an excitation wavelength of 390 nm and an emission wavelength of 460 nm in a microtiter plate reader (BMG Polarstar).
as §1

Sequence of HDAC1 (Q13547 whole entry): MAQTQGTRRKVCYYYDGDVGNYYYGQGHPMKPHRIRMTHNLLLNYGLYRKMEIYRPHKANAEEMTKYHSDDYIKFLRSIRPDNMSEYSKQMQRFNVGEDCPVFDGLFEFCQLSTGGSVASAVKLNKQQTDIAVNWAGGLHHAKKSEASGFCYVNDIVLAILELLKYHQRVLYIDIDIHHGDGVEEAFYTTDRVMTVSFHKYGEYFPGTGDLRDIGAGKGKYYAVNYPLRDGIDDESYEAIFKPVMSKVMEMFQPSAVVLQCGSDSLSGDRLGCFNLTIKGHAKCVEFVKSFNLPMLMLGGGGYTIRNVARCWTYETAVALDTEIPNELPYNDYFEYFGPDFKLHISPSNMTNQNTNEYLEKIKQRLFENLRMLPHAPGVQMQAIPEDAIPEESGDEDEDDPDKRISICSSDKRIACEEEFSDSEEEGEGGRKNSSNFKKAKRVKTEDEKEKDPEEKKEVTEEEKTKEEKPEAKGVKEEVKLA

inhibition at 1 µM (HDAC1; 1 µM, read-out: HDAC1 % inhib. at given conc.) [%] | inhibition at 10 µM (HDAC1; 10 µM, read-out: HDAC1 % inhib. at given conc.) [%] | Structure (SMILES) | HDAC8 degradation (HDAC8 [1]) | Effect on colony formation (SK-N-BE(2)-C cells) | HDAC8 inhibitory activity (HDAC8 [2]; negative control) | HDAC1 inhibitory activity (HDAC1; negative control) | Remaining HDAC8 protein (HDAC8 [1]; 6 h, 10 µM) [%] | IC50 (HDAC8 [2]) [nM] | SI (HDAC6/HDAC8) (HDAC8 [2]; selectivity index, HDAC6 over HDAC8) | IC50 (HDAC1) [nM]
– | – | COC(=O)c1ccc(C)c(NCc2ccc(OCc3cn(CCCCCC(=O)Nc4cccc5c4C(=O)N(C4CCC(=O)NC4=O)C5=O)nn3)cc2)c1 (stereo not drawn) [33a] | did not show hyperacetylation of SMC3 or HDAC8 degradation | inactive | did not demonstrate a strong inhibitory activity | did not demonstrate a strong inhibitory activity | – | – | – | –
– | – | COc1ccc(C(=O)NO)cc1NC(=O)c1ccc(NC(=O)CCCCCCCNc2cccc3c2C(=O)N(C2CCC(=O)NC2=O)C3=O)cc1 (stereo not drawn) [CRBN_1b] | strong HDAC8 degradation | significantly decreased the ability to form colonies | – | – | 40 | 810 ± 170 | 0.7 | > 20000
2.3 | 40 | O=C(COc1ccc(CNc2cc(C(=O)NO)ccc2Cl)cc1)NCCCCCNC(=O)CC12CC3CC(CC(C3)C1)C2 [HyT_1p] | failed to degrade HDAC8 | significantly decreased the ability to form colonies | – | – | – | 750 ± 90 | – | –

From paper PMC9322761, “Design, Synthesis and Biological Characterization of Histone Deacetylase 8 (HDAC8) Proteolysis Targeting Chimeras (PROTACs) with Anti-Neuroblastoma Activity” (International Journal of Molecular Sciences, 2022)
